Results on 32 molecules are retold here after patent US20240083857A1, “2-Methyl-Quinazolines” (Bayer Pharma Aktiengesellschaft, priority 2017, published 2024).

Experiment [1] has as its target K-Ras^G12C : hSOS1 interaction (Homo sapiens, UniProt Q07889). Briefly: Biochemical assay 1: K-Ras^G12C interaction assay with hSOS1 (HTRF). It counts as binding. To be noted: read-out: Assay 1 (KRAS-SOS Interaction) activity expressed as IC50.
The target of experiment [2] is human SOS1 (loading of human K-Ras^G12C-GDP with fluorescent GTP-analog) (Homo sapiens, UniProt Q07889). As to the kind of experiment: Biochemical assay 3: K-Ras^G12C activation assay by hSOS1 (HTRF). To be noted: no GTP; for pIC50: read-out: Assay 3 (KRAS-Activation by SOS no GTP) activity expressed as IC50; for inhibition at 20 µM: read-out: Assay 3 (KRAS-Activation by SOS no GTP) activity expressed as % inhibition at 20 μM.

Molecules are shown by their SMILES. pIC50: −log10 of the molar value.

What is called pIC50 is the IC50 on a negative log10 scale, so that one unit is a factor of ten. For the molecule `COc1cc2nc(C)nc(NC(C)c3cccc(Oc4ccccc4)c3)c2cc1OC` (single isomer, unassigned; enantiomer 1) [Example 228, 6,7-dimethoxy-2-methyl-N-[1-(3-phenoxyphenyl)ethyl]quinazolin-4-amine, Enantiomer 1], the figures for the negative logarithm of the IC50 (pIC50) in experiment [1] and in experiment [2] were 6.24 and 5.84, respectively.
In the case of `COc1cc2nc(C)nc(N[C@H](C)c3cccc(S(C)(=O)=O)c3)c2cc1OC` [Example 198, 6,7-dimethoxy-2-methyl-N-{(1R)-1-[3-(methylsulfonyl)phenyl]ethyl}quinazolin-4-amine], the figures for the pIC50 in experiment [1] and in experiment [2] were 6.54 and 5.96, respectively.
The term inhibition denotes the share of the control response that was lost under treatment. In the case of `COc1cc2nc(C)nc(N[C@H](C)c3ccc(C4=CCN(C)CC4)cc3)c2cc1OC` [Example 201, 6,7-dimethoxy-2-methyl-N-{(1R)-1-[4-(1-methyl-1,2,3,6-tetrahydropyridin-4-yl)phenyl]ethyl}quinazolin-4-amine], in experiment [1], the negative-log IC50 (pIC50) is 4.71. Further, the inhibition at 20 µM in experiment [2] turned out to be 50%.
For `COC(=O)c1cc2c(C(C)Nc3nc(C)nc4cc(OC)c(OC)cc34)cccc2s1` (stereo not shown) [Example 3, methyl 4-{1-[(6,7-dimethoxy-2-methylquinazolin-4-yl)amino]ethyl}-1-benzothiophene-2-carboxylate], the negative-log IC50 (pIC50) in experiment [1] was 6.95; in experiment [2] it was 6.64.
Take `COc1cc2nc(C)nc(NC(C)c3ccc(-c4ccccc4CN4CCC(O)C4)s3)c2cc1OC` (stereo not shown) [Example 210, 1-[2-(5-{1-[(6,7-dimethoxy-2-methylquinazolin-4-yl)amino]ethyl}thiophen-2-yl)benzyl]pyrrolidin-3-ol]: the pIC50 in experiment [1] is 7.41; in experiment [2], 7.00.
In the case of `Cc1nc(N[C@H](C)c2cccc3ccccc23)c2ccccc2n1` [Example 186, 2-methyl-N-[(1R)-1-(naphthalen-1-yl)ethyl]quinazolin-4-amine], in experiment [1], the negative logarithm of the IC50 (pIC50) is 5.00. Also, the inhibition at 20 µM in experiment [2] worked out at 22%.
With `COc1cc2nc(C)nc(NC(C)c3cccc4cnn(C)c34)c2cc1OC` (stereo not shown) [Example 10, 6,7-dimethoxy-2-methyl-N-[1-(1-methyl-1H-indazol-7-yl)ethyl]quinazolin-4-amine], the figures for the negative logarithm of the IC50 (pIC50) in experiment [1] and in experiment [2] were 5.93 and 5.21, respectively.
Take `COc1cc2nc(C)nc(NC(C)c3cccc4cccnc34)c2cc1OC` (single isomer, unassigned; enantiomer 1) [Example 230, 6,7-dimethoxy-2-methyl-N-[1-(quinolin-8-yl)ethyl]quinazolin-4-amine, Enantiomer 1]: the values for the pIC50 in experiment [1] and in experiment [2] were 5.31 and 4.88, respectively.
The corresponding values for `COc1cc2nc(C)nc(NC(C)c3cccc4sccc34)c2cc1OC` (stereo not shown) [Example 205, N-[1-(1-benzothiophen-4-yl)ethyl]-6,7-dimethoxy-2-methylquinazolin-4-amine] are 7.13 and 6.90.
As for `COc1cc2nc(C)nc(NC(C)c3ccc(-c4ccccc4CO)s3)c2cc1OC` (stereo not shown) [Example 244, [2-(5-{1-[(6,7-dimethoxy-2-methylquinazolin-4-yl)amino]ethyl}thiophen-2-yl)phenyl]methanol], the pIC50 in experiment [1] is 6.55; in experiment [2], 6.35.
As for `COc1cc2nc(C)nc(NC(C)c3ccc(-c4ccc(F)cc4CN)s3)c2cc1OC` (stereo not shown) [Example 234, N-[1-{5-[2-(aminomethyl)-4-fluorophenyl]thiophen-2-yl}ethyl]-6,7-dimethoxy-2-methylquinazolin-4-amine], the results for the negative-log IC50 (pIC50) in experiment [1] and in experiment [2] were 7.12 and 7.04, respectively.
For the molecule `COc1cc2nc(C)nc(N[C@H](C)c3ccc(Br)cc3)c2cc1OC` [Example 187, N-[(1R)-1-(4-bromophenyl)ethyl]-6,7-dimethoxy-2-methylquinazolin-4-amine], the pIC50 in experiment [1] is 6.32; in experiment [2], 5.90.
The corresponding values for `COc1cc2nc(C)nc(NC(C)c3csc(-c4cnc5n4CCC5)c3)c2cc1OC` (stereo not shown) [Example 253, N-{1-[5-(6,7-dihydro-5H-pyrrolo[1,2-a]imidazol-3-yl)thiophen-3-yl]ethyl}-6,7-dimethoxy-2-methylquinazolin-4-amine] are 5.88 and 5.24.
Turning to `COc1cc2nc(C)nc(NC(C)c3ccc(-c4cnc5n4CCC5)s3)c2cc1OC` (stereo not shown) [Example 219, N-{1-[5-(6,7-dihydro-5H-pyrrolo[1,2-a]imidazol-3-yl)thiophen-2-yl]ethyl}-6,7-dimethoxy-2-methylquinazolin-4-amine], the figures for the pIC50 in experiment [1] and in experiment [2] were 6.38 and 6.04, respectively.
As for `COc1cc2nc(C)nc(NC(C)c3csc(-c4ccc(F)cc4CN)c3)c2cc1OC` (stereo not shown) [Example 255, N-[1-{5-[2-(aminomethyl)-4-fluorophenyl]thiophen-3-yl}ethyl]-6,7-dimethoxy-2-methylquinazolin-4-amine], the figures for the pIC50 in experiment [1] and in experiment [2] were 6.61 and 6.41, respectively.
The like results for `COc1cc2nc(C)nc(N[C@H](C)c3ccc(C4CC4)cc3)c2cc1OC` [Example 197, N-[(1R)-1-(4-cyclopropylphenyl)ethyl]-6,7-dimethoxy-2-methylquinazolin-4-amine] were, in that order, 6.57 and 6.20.
The corresponding values for `COc1cc2nc(C)nc(N[C@H](C)c3ccc(C(N)=O)cc3)c2cc1OC` [Example 192, 4-{(1R)-1-[(6,7-dimethoxy-2-methylquinazolin-4-yl)amino]ethyl}benzamide] are 5.34 and 4.85.
With `C=Cc1ccccc1-c1ccc(C(C)Nc2nc(C)nc3cc(OC)c(OC)cc23)s1` (stereo not shown) [Example 248, N-{1-[5-(2-ethenylphenyl)thiophen-2-yl]ethyl}-6,7-dimethoxy-2-methylquinazolin-4-amine], the pIC50 in experiment [1] is 5.83; in experiment [2], 5.07.
The corresponding values for `COc1cc2nc(C)nc(N[C@H](C)c3cccc(C(N)=O)c3)c2cc1OC` [Example 199, 3-{(1R)-1-[(6,7-dimethoxy-2-methylquinazolin-4-yl)amino]ethyl}benzamide] are 5.76 and 5.17.
For `COc1cc2nc(C)nc(N[C@H](C)c3cccc(Br)c3)c2cc1OC` [Example 191, N-[(1R)-1-(3-bromophenyl)ethyl]-6,7-dimethoxy-2-methylquinazolin-4-amine], the pIC50 in experiment [1] was 6.76; in experiment [2], 6.42.
The corresponding values for `COc1cc2nc(C)nc(NC(C)c3ccc(-c4cnn(C5CCCC5)c4)s3)c2cc1OC` (stereo not shown) [Example 221, N-{1-[5-(1-cyclopentyl-1H-pyrazol-4-yl)thiophen-2-yl]ethyl}-6,7-dimethoxy-2-methylquinazolin-4-amine] are 5.51 and 5.32.
For the molecule `COc1cc2nc(C)nc(NC(C)c3csc(-c4cnn(CCO)c4)c3)c2cc1OC` (stereo not shown) [Example 251, 2-[4-(4-{1-[(6,7-dimethoxy-2-methylquinazolin-4-yl)amino]ethyl}thiophen-2-yl)-1H-pyrazol-1-yl]ethanol], the negative logarithm of the IC50 (pIC50) in experiment [1] was 5.34. Further, in experiment [2], the inhibition at 20 µM stood at 52%.
`COc1cc2nc(C)nc(N[C@H](C)c3cccc(C)c3)c2cc1OC` [Example 190, 6,7-dimethoxy-2-methyl-N-[(1R)-1-(3-methylphenyl)ethyl]quinazolin-4-amine]: the negative-log IC50 (pIC50) in experiment [1] is 6.76; in experiment [2] it was 6.26.
For the molecule `COc1cc2nc(C)nc(N[C@H](C)c3cccc(-c4cnn(CCN5CCCC5)c4)c3)c2cc1OC` [Example 257, 6,7-dimethoxy-2-methyl-N-[(1R)-1-(3-{1-[2-(pyrrolidin-1-yl)ethyl]-1H-pyrazol-4-yl}phenyl)ethyl]quinazolin-4-amine], the pIC50 in experiment [1] is 6.44; in experiment [2], 6.07.
The corresponding values for `COc1cc2nc(C)nc(NC(C)c3ccc(-c4ccccc4CN)s3)c2cc1OC` (stereo not shown) [Example 252, N-[1-{5-[2-(aminomethyl)phenyl]thiophen-2-yl}ethyl]-6,7-dimethoxy-2-methylquinazolin-4-amine] are 7.10 and 6.99.
On to `COc1cc2nc(C)nc(N[C@H](C)c3cccc(-c4ccccc4)c3)c2cc1OC` [Example 193, N-[(1R)-1-(biphenyl-3-yl)ethyl]-6,7-dimethoxy-2-methylquinazolin-4-amine], for which the negative-log IC50 (pIC50) is 6.38 in experiment [1] and 6.09 in experiment [2].
The corresponding values for `CCOc1ccccc1-c1ccc(C(C)Nc2nc(C)nc3cc(OC)c(OC)cc23)s1` (stereo not shown) [Example 232, N-{1-[5-(2-ethoxyphenyl)thiophen-2-yl]ethyl}-6,7-dimethoxy-2-methylquinazolin-4-amine] are 5.05 and 5.39.
The corresponding values for `COc1cc2nc(C)nc(NC(C)c3cccs3)c2cc1OC` (stereo not shown) [Example 207, 6,7-dimethoxy-2-methyl-N-[1-(thiophen-2-yl)ethyl]quinazolin-4-amine] are 5.56 and 4.91.
On to `COc1cc2nc(C)nc(NC(C)c3ccc4nsnc4c3)c2cc1OC` (stereo not shown) [Example 229, N-[1-(2,1,3-benzothiadiazol-5-yl)ethyl]-6,7-dimethoxy-2-methylquinazolin-4-amine], for which the negative logarithm of the IC50 (pIC50) in experiment [1] is 5.16. Moreover, the inhibition at 20 µM in experiment [2] is 29%.
With `COc1cc2nc(C)nc(N[C@H](C)c3ccc(C)cc3)c2cc1OC` [Example 195, 6,7-dimethoxy-2-methyl-N-[(1R)-1-(4-methylphenyl)ethyl]quinazolin-4-amine], the results for the pIC50 in experiment [1] and in experiment [2] were 6.52 and 6.13, respectively.
The like results for `COc1cc2nc(C)nc(N[C@H](C)c3cccc(-c4cnn(CCO)c4)c3)c2cc1OC` [Example 256, 2-[4-(3-{(1R)-1-[(6,7-dimethoxy-2-methylquinazolin-4-yl)amino]ethyl}phenyl)-1H-pyrazol-1-yl]ethanol] were, in that order, 6.33 and 5.87.
As to `COc1cc2nc(C)nc(N[C@H](C)c3cccc(Cl)c3)c2cc1OC` [Example 2, N-[(1R)-1-(3-chlorophenyl)ethyl]-6,7-dimethoxy-2-methylquinazolin-4-amine], the pIC50 in experiment [1] was 6.90; in experiment [2] it was 6.27.
